Data from US20230092163A1, “COMPOUNDS AND COMPOSITIONS FOR TREATING CONDITIONS ASSOCIATED WITH STING ACTIVITY” (IFM Due, Inc., priority 2019, published 2023).
pEC50: −log10 of the molar value.

biological target: STING (Homo sapiens, UniProt Q86WV6, G230A/H232R/R293Q/R71H); experiment: STING reporter assay: THP1-Dual KO-IFNAR2 cells stimulated with 2′3′cGAMP, luciferase reporter activity; type: cell-based; settings: 15 μM 2′3′cGAMP, 24h, class symbols
How it was run: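 THP1-Dual KO-IFNAR2 cells (2×10E6 cells/mL) treated with compounds at 0.0017-100 μM, then stimulated with 2′3′cGAMP (15 μM final) delivered by Lipofectamine 2000; 24 h at 37° C. Supernatant luciferase read by QUANTI-Luc Plus luminescence; EC50 from dose-response.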

STING, sequence (Q86WV6 whole entry R71H/G230A/H232R/R293Q): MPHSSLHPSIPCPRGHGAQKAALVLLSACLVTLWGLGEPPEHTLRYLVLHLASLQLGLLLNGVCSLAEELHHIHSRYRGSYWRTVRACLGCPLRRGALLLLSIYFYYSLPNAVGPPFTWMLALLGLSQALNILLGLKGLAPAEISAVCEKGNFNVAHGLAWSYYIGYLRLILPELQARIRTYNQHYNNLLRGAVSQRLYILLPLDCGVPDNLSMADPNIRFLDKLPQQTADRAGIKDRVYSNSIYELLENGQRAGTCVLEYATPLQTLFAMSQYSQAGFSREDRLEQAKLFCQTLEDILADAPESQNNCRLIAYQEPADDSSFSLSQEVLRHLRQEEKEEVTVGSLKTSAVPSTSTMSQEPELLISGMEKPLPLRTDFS

Row | SMILES | pEC50
1 | CC(C)(C)OC(=O)N1Cc2cnc(Nc3ccc4cc[nH]c4c3)nc2C1 [Compound 418, tert-butyl 2-((1H-indol-6-yl)amino)-5H-pyrrolo[3,4-d]pyrimidine-6(7H)-carboxylate] | 4.00 to 5.30
2 | CC(C)(C)c1cccc(Nc2ccc3cc[nH]c3c2)n1 [Compound 420, N-(6-(tert-butyl)pyridin-2-yl)-1H-indol-6-amine] | 5.30 to 6.00
3 | Cc1ccc(Nc2ccc3cc[nH]c3c2)nc1C(F)(F)F [Compound 421, N-(5-methyl-6-(trifluoromethyl)pyridin-2-yl)-1H-indol-6-amine] | 5.30 to 6.00
4 | O=S(=O)(c1ccc(Nc2ccc3cc[nH]c3c2)nc1)N1CCCCC1 [Compound 422, N-(5-(piperidin-1-ylsulfonyl)pyridin-2-yl)-1H-indol-6-amine] | 4.00 to 5.30
5 | c1ccc(-c2ccc(Nc3ccc4cc[nH]c4c3)nc2)cc1 [Compound 424, N-(5-phenylpyridin-2-yl)-1H-indol-6-amine] | 5.30 to 6.00
6 | CC(C)(C)c1ccc(Nc2ccc3cc[nH]c3c2)nc1 [Compound 426, N-(5-(tert-butyl)pyridin-2-yl)-1H-indol-6-amine] | 4.00 to 5.30
7 | CC(C)(C)OC(=O)N1CCc2cnc(Nc3ccc4cc[nH]c4c3)nc2C1 [Compound 428, tert-butyl 2-((1H-indol-6-yl)amino)-5,6-dihydropyrido[3,4-d]pyrimidine-7(8H)-carboxylate] | 4.00 to 5.30
8 | CC(C)(C)OC(=O)N1CCC(c2ccnc(Nc3ccc4cc[nH]c4c3)n2)CC1 [Compound 429, tert-butyl4-(2-((1H-indol-6-yl)amino)pyrimidin-4-yl)piperidine-1-carboxylate] | 4.00 to 5.30
9 | c1cc2c(c(Nc3ccc4cc[nH]c4c3)n1)CCCC2 [Compound 431, N-(1H-indol-6-yl)-5,6,7,8-tetrahydroisoquinolin-1-amine] | 4.00 to 5.30
10 | Cc1cc(NC(=O)Nc2cc(Cl)c3cc[nH]c3c2)cnc1N1CCC(F)(F)CC1 [Compound 500] | 6.00 to 6.70
11 | O=C(Nc1cc(F)cc(C(F)(F)F)c1)Nc1cc(CCO)c2cc[nH]c2c1 [Compound 501] | 5.30 to 6.00
12 | COc1cc(NC(=O)NCc2cc(Cl)cc(C(F)(F)F)c2)cc2[nH]ccc12 [Compound 503] | 6.00 to 6.70
13 | COc1cc(NC(=O)Nc2ccc(C(F)(F)F)cc2)cc2[nH]ccc12 [Compound 504] | 6.00 to 6.70
14 | COCCc1cc(NC(=O)Nc2ccc(C(F)(F)F)cc2)cc2[nH]ccc12 [Compound 505] | 5.30 to 6.00
15 | CC(NC(=O)Nc1cnc2cc[nH]c2c1)c1cc(Cl)cc(C(F)(F)F)c1 (centres unmarked) [Compound 506] | 4.00 to 5.30
16 | O=C(NCc1cc(Cl)cc(C(F)(F)F)c1)Nc1cnc2cc[nH]c2c1 [Compound 507] | 5.30 to 6.00
17 | CNS(=O)(=O)c1c[nH]c2cc(NC(=O)Nc3ccc(C(F)(F)F)cc3)ccc12 [Compound 508] | 4.00 to 5.30
18 | O=C(Nc1cccc(C(F)(F)F)c1)Nc1cc(CCO)c2cc[nH]c2c1 [Compound 509, 1-(4-(2-hydroxyethyl)-1H-indol-6-yl)-3-(3-(trifluoromethyl)phenyl)urea] | 5.30 to 6.00
19 | [N-]=[N+]=Nc1ccc(NC(=O)Nc2ccc3cc[nH]c3c2)cc1 [Compound 510, 1-(4-azidophenyl)-3-(1H-indol-6-yl)urea] | 5.30 to 6.00
20 | CNC(=O)OCCc1cc(NC(=O)Nc2ccc(C(F)(F)F)cc2)cc2[nH]ccc12 [Compound 512] | 5.30 to 6.00
21 | CN(C)CCc1cc(NC(=O)Nc2ccc(C(F)(F)F)cc2)cc2[nH]ccc12 [Compound 513] | 4.00 to 5.30
22 | O=C(Nc1cnc(N2CC(F)(F)C2)c(Cl)c1)Nc1ccc2c(F)c[nH]c2c1 [Compound 514] | 6.00 to 6.70
23 | O=C(Nc1cnc(N2CC(F)(F)C2)c(F)c1)Nc1cc(Cl)c2cc[nH]c2c1 [Compound 516] | 6.00 to 6.70
24 | O=C(Nc1ccc(C(F)(F)F)cc1)Nc1cc(Cl)c2c(F)c[nH]c2c1 [Compound 518] | 6.70 to 7.40

Row | SMILES | pEC50
25 | O=C(NCCOc1cccnc1)Nc1ccc2cc[nH]c2c1 [Compound 519] | 4.00 to 5.30
26 | C[C@@H](NC(=O)Nc1cc(Cl)c2cc[nH]c2c1)c1cc(Cl)cc(C(F)(F)F)c1 [Compound 521, (R)-1-(4-chloro-1H-indol-6-yl)-3-(1-(3-chloro-5-(trifluoromethyl)phenyl)ethyl)urea] | 5.30 to 6.00
27 | O=C(Nc1cccc(C(F)(F)F)c1)Nc1ccc2c(F)c[nH]c2c1 [Compound 523] | 5.30 to 6.00
28 | O=C(NCCOc1ccccc1C(F)(F)F)Nc1ccc2cc[nH]c2c1 [Compound 524] | 5.30 to 6.00
29 | O=C(NCCOc1cccc(C(F)(F)F)c1)Nc1ccc2cc[nH]c2c1 [Compound 525] | 6.00 to 6.70
30 | Cc1ncccc1-n1cc(C#N)c2ccc(NC(=O)Nc3ccc(C(F)(F)F)cc3)cc21 [Compound 527] | 4.00 to 5.30
31 | N#Cc1c[nH]c2cc(NC(=O)Nc3ccc(C(F)(F)F)cc3)cc(F)c12 [Compound 528] | 5.30 to 6.00
32 | CC(=O)n1cc(C#N)c2ccc(NC(=O)Nc3ccc(C(F)(F)F)cc3)cc21 [Compound 529] | 5.30 to 6.00
33 | O=C(Nc1cnc(N2CC(F)(F)C2)c(F)c1)Nc1ccc2c(F)c[nH]c2c1 [Compound 531] | 6.00 to 6.70
34 | Cc1cc(NC(=O)Nc2ccc(C(F)(F)F)cc2)cc2[nH]cc(C#N)c12 [Compound 533] | 5.30 to 6.00
35 | CC(=O)n1cc(F)c2ccc(NC(=O)Nc3ccc(C(F)(F)F)cc3)cc21 [Compound 534, 1-(1-acetyl-3-fluoro-1H-indol-6-yl)-3-(4-(trifluoromethyl)phenyl)urea] | 6.00 to 6.70
36 | O=C(Nc1cc(F)cc(C(F)(F)F)c1)Nc1ccc2c(F)c[nH]c2c1 [Compound 535] | 6.00 to 6.70
37 | O=C(NCc1cc(Cl)cc(C(F)(F)F)c1)Nc1cc(Cl)c2cc[nH]c2c1 [Compound 536] | 6.00 to 6.70
38 | CC(NC(=O)Nc1cc(Cl)c2cc[nH]c2c1)c1cc(Cl)cc(C(F)(F)F)c1 (centres unmarked) [Compound 537] | 6.00 to 6.70
39 | O=C(NCc1cc(Cl)cc(C(F)(F)F)c1)Nc1ccc2c(F)c[nH]c2c1 [Compound 538] | 4.00 to 5.30
40 | N#Cc1c[nH]c2cc(NC(=O)Nc3cccc(C(F)(F)F)c3)ccc12 [Compound 539] | 4.00 to 5.30
41 | CNC(=O)Cc1c[nH]c2cc(NC(=O)Nc3ccc(C(F)(F)F)cc3)ccc12 [Compound 540] | 4.00 to 5.30
42 | O=C(Nc1cc(Cl)c2cc[nH]c2c1)NC1CCC2(CCCCC2)CC1 [Compound 542] | 6.00 to 6.70
43 | CNC(=O)c1cc(NC(=O)Nc2ccc(C(F)(F)F)cc2)cc2[nH]ccc12 [Compound 543] | 4.00 to 5.30
44 | CN(C)Cc1cc(NC(=O)Nc2ccc(C(F)(F)F)cc2)cc2[nH]ccc12 [Compound 546] | 4.00 to 5.30
45 | CN(C)C(=O)c1cc(NC(=O)Nc2ccc(C(F)(F)F)cc2)cc2[nH]ccc12 [Compound 547] | 4.00 to 5.30
46 | O=C(Nc1ccc(C2CC(F)(F)C2)c(F)c1)Nc1cc(Cl)c2cc[nH]c2c1 [Compound 548] | 6.70 to 7.40
47 | Cc1ccc2nc(Nc3ccc4cc[nH]c4c3)ccc2c1C(F)(F)F [Compound 549] | 6.00 to 6.70
48 | Fc1ccc2nc(Nc3ccc4cc[nH]c4c3)ccc2c1C(F)(F)F [Compound 550] | 6.00 to 6.70

same assay, conditions: 15 μM 2′3′cGAMP, 24h, numeric bounds

Row | SMILES | pEC50
49 | CC(C)(C)OC(=O)N1CCc2nc(Nc3ccc4cc[nH]c4c3)ncc2C1 [Compound 419, tert-butyl 2-((1H-indol-6-yl)amino)-7,8-dihydropyrido[4,3-d]pyrimidine-6(5H)-carboxylate] | < 4.52
50 | O=S(=O)(c1ccc(Nc2ccc3cc[nH]c3c2)nc1)N1CCCC1 [Compound 423, N-(5-(pyrrolidin-1-ylsulfonyl)pyridin-2-yl)-1H-indol-6-amine] | < 4.52
51 | Clc1ccc2ccc(Nc3ccc4cc[nH]c4c3)nc2c1Cl [Compound 425, 7,8-dichloro-N-(1H-indol-6-yl)quinolin-2-amine] | < 4.52
52 | c1ccc(-c2cccc(Nc3ccc4cc[nH]c4c3)n2)cc1 [Compound 427, N-(6-phenylpyridin-2-yl)-1H-indol-6-amine] | < 4.69
53 | CC(N)c1ccnc(Nc2ccc3cc[nH]c3c2)c1 (centres unmarked) [Compound 430, N-(4-(1-aminoethyl)pyridin-2-yl)-1H-indol-6-amine] | < 4.52
54 | FC(F)(F)c1ccc2cnc(Nc3ccc4cc[nH]c4c3)nc2c1 [Compound 432, N-(1H-indol-6-yl)-7-(trifluoromethyl)quinazol in-2-amine] | < 4.52
55 | c1cc(Nc2ccc3cc[nH]c3c2)nc(C2CC2)c1 [Compound 433, N-(6-cyclopropylpyridin-2-yl)-1H-indol-6-amine] | < 4.52
56 | c1cnc2ccnc(Nc3ccc4cc[nH]c4c3)c2c1 [Compound 478, N-(1H-indol-6-yl)-1,6-naphthyridin-5-amine] | < 4.52
57 | COC1CN(c2ncc(NC(=O)Nc3cc(Cl)c4cc[nH]c4c3)cc2C)C1 [Compound 498] | < 4.52
58 | Cc1cc(NC(=O)Nc2ccc3c(F)c[nH]c3c2)cnc1N1CCC(F)(F)CC1 [Compound 499] | < 5.95
59 | N#Cc1cc(NC(=O)Nc2cnc(N3CC(F)(F)C3)c(F)c2)cc2[nH]ccc12 [Compound 511] | < 4.52
60 | O=C(Nc1ccc2c(F)c[nH]c2c1)Nc1ccc(N2CC(F)(F)C2)cn1 [Compound 515] | < 4.52
61 | O=C(Nc1ccc(N2CC(F)(F)C2)nc1)Nc1ccc2c(F)c[nH]c2c1 [Compound 517] | < 4.52
62 | CC(=O)c1c[nH]c2cc(NC(=O)Nc3ccc(C(F)(F)F)cc3)ccc12 [Compound 522] | < 4.52
63 | Cc1c(NC(=O)Nc2ccc(C(F)(F)F)cc2)ccc2c(C#N)c[nH]c12 [Compound 526] | < 5.13
64 | N#Cc1c[nH]c2cc(NC(=O)Nc3cnc(N4CC(F)(F)C4)c(F)c3)ccc12 [Compound 530] | < 4.52
65 | N#Cc1c[nH]c2cc(NC(=O)NCc3cc(Cl)cc(C(F)(F)F)c3)ccc12 [Compound 532] | < 4.52
66 | CNC(=O)c1c[nH]c2cc(NC(=O)Nc3ccc(C(F)(F)F)cc3)ccc12 [Compound 541] | < 4.52
67 | Cn1cc(-n2cc(C#N)c3ccc(NC(=O)Nc4ccc(C(F)(F)F)cc4)cc32)cn1 [Compound 544] | < 4.52
68 | Cn1cc(-c2c[nH]c3cc(NC(=O)Nc4ccc(C(F)(F)F)cc4)ccc23)cn1 [Compound 545] | < 4.52
